Data taken from PMC4070910, “Cathepsin S Signals via PAR2 and Generates a Novel Tethered Ligand Receptor Agonist” (PLoS ONE, 2014).
Entries after “also recorded” stand apart in the source; their conditions may differ.

What was measured:
[1] = system: human PAR2; test: Fura-2 calcium imaging in HeLa cells transfected with PAR2 cDNA; type: cell-based; conditions: for Concentration-effect curve, calcium-dependent response (in words): peptides 1 nM - 1 mM, triplicate, Fura-2 ratiometric imaging
Procedure: Human PAR2 cDNA was cloned as an Xho I-Hind III fragment (1206 bp) into pcDNA3.1(−). 10 µg of DNA were diluted into 0.5 ml of DMEM and mixed with 0.5 ml of DMEM containing 10 µl of Lipofectamine 2000 transfection reagent and incubated at room temperature for 20 minutes. HeLa cells were grown to confluence, trypsinized and 1×10^6 cells were pelleted in a 15 ml tube by centrifugation at 1000 rpm for 5 minutes. The DMEM-Lipofectamine 2000-DNA mixture (1 ml) was added to the cell pellet, resuspended gently and incubated at room temperature for 20 minutes. Four ml of complete DMEM with 10% FBS were added to the tube, mixed by inverting the tube several times, plated into a 96-well glass bottom plate at 20,000 cells/well, and placed in a 37°C CO2 incubator. HeLa cells transfected with vector alone or salmon sperm DNA (shown in the figures) were plated as a control. The medium was aspirated two days after transfection. Fura-2 was used as a ratiometric calcium-sensitive indicator as follows. 100 µl of complete DMEM containing 2 µM of Fura-2 were added to each well and left at room temperature in the dark for 1 hr. Following loading with Fura-2, the medium was aspirated and replaced with 90 µl of HEPES-buffered saline (20 mM HEPES, 115 mM NaCl, 5.4 mM KCl, 2 mM CaCl2, 0.8 mM MgCl2, 13.8 mM glucose, pH 7.4).
Imaging was performed using a Zeiss Axiovert 200 M microscope platform equipped with a flipping filter wheel for ratiometric imaging. Axiovision software, version 4.6 was used for image analysis of the cells which were excited at 340 nm and 380 nm. Ten µl of peptide agonist were added at 20 seconds after the start of the excitation procedure. Images were taken every 5 seconds, including at zero time, during a 3-minute period or longer if required. The software later analyzed all images taken during each excitation period. Typically, ratiometric changes were measured in 10–20 cells in each image. An average of the fluorescence of the cells in each image was calculated and plotted against time in seconds.
HeLa cells transfected with PAR2 cDNA were subjected to ratiometric imaging as described above with PAR2 peptides, SLIGRL, KVDGTS, and SLIGKVDGTS in addition to the reverse peptides LRGILS and STGDVK at concentrations from 1 nM - 1 mM. Each of the concentration-dependent readings was performed in triplicate. Maximum intensities at each of the dilutions were calculated and plotted against concentration using GraphPad/PRISM software version 6.0 (Irvine, CA). Error bars represent +/−SEM.

[2] = system: human PAR2; test: IP1 (IP-One HTRF) assay in PAR2-transfected HeLa cells; type: cell-based; conditions: 1 hour, 37°C; KVDGTS 100 µM, SLIGRL 10 µM, cathepsin S 1 µM; KVDGTS and SLIGRL after subtracting baseline values; cathepsin S 'in this particular experiment'
Procedure: To determine the effect of PAR2 activation on Gq stimulation, we measured IP1, a downstream metabolite of IP3, using the IP-One HTRF assay from Cis Bio, Medford, MA. HeLa cells were transfected with salmon sperm DNA or PAR2 cDNA as described above, plated in 10 cm culture dishes and incubated at 37°C with 5% CO2. After 24 hours, the cells were trypsinized, counted, plated into 96-well plates at 80,000 cells/well and incubated for another 24 hours. The medium was replaced with a stimulation buffer containing LiCl, per the instructions of the manufacturer. Ligands, including cathepsin S (1 µM), KVDGTS (100 µM) and SLIGRL (10 µM) were added to wells and incubated at 37°C for 1 hour and IP1 levels determined. This assay was performed on multiple wells containing each ligand on three occasions. Error bars represent SEM.

[3] = system: PKC (βII Ser660) phosphorylation in PAR2-transfected HeLa cells; test: Western blot for p-PKC (Ser660) in PAR2-transfected HeLa cells; type: cell-based, human; conditions: 10 minutes, room temperature; SLIGRL 10 µM, SLIGKVDGTS 10 µM, KVDGTS 100 µM, cathepsin S 1 µM
Procedure: HeLa cells were transfected with PAR2 plasmid DNA as described above. Untransfected HeLa cells were plated as a control. Forty-eight hours after transfection, cells were rinsed with PBS three times. Transfected HeLa cells were incubated with either SLIGRL (10 µM), SLIGKVDGTS (10 µM), KVDGTS (100 µM), or cathepsin S (1 µM) at room temperature for 10 minutes. Untransfected HeLa cells were treated with SLIGRL (10 µM) in a similar manner. A subset of transfected HeLa cells remained untreated and served as a negative control. After incubation, cells were harvested, pelleted and lysed by sequential freeze-thaw cycles. Cell lysates were centrifuged at 4°C for 15 minutes. Supernatants were collected and protein concentrations were determined by Bradford assay. Equal amounts of cell lysates were loaded onto NuPAGE Novex Bis-Tris mini gels, electrophoresed and transferred to nitrocellulose membranes using standard protocols. The blot was first probed with rabbit anti-phospho-PKC (βII Ser660) antibody (Cell Signalling Technology, Danvers, MA), and later reprobed with a mouse anti-actin antibody to identify the control actin band at 42 kDa. Primary antibodies were labeled with HRP-conjugated donkey anti-rabbit antibody and HRP-conjugated donkey anti-mouse antibody, respectively, followed by detection of the position of the antigen on the blot.

[4] = system: PAR2; conditions: cited from earlier work; for PAR2 activation (in words): in vitro, plant proteases
From the text: PAR2 signaling has been implicated in the development of inflammatory and bowel diseases, asthma, itch and pain. The receptor is expressed on many types of cells including keratinocytes, sensory neurons, fibroblasts, endothelial cells, and inflammatory cells, [3]. Consistent with this broad expression, PAR2 is involved in numerous physiologic and pathophysiologic processes in response to both endogenous and exogenous proteases.

[5] = system: PAR2; conditions: cited from earlier work
From the text: Proteases can activate PARs but it has been hypothesized that they can also inactivate them. […] As the cathepsin S cleavage sites identified here are downstream o ...

[6] = system: cathepsin S in keratinocytes; conditions: cited from earlier work
From the text: We have identified a new peptide ligand generated by cathepsin S cleavage of PAR2. […] Our findings support a mechanism by which an N-terminal tethered ligand generated by cathepsin S cleavage might propagate PAR2 signaling in keratinocytes, or other target cells, surrounding a primary focus of inflammation. A possible scenario with respect to cutaneous inflammation could be as follows: IFN-γ, ...

[7] = system: cathepsin S; test: Cathepsin S digestion of the human PAR2 N-terminal peptide (LC/MS/MS); type: biochemical; conditions: cathepsin S 1 µM, pH 7.0, 37°C, 20 minutes; MS/MS sequencing
Procedure: Recombinant human cathepsin S was produced as follows. The human cathepsin S proprotein coding region was isolated by PCR using the forward and reverse primers […] CCTG and […] and a template of plasmid DNA containing the entire coding sequence of human cathepsin S. The PCR product was cut with Nco I and Xho I, and cloned into the pTYB4 expression vector from New England Biolabs for expression in E.coli. Cells were grown in LB medium induced with 0.3 mM IPTG, harvested by centrifugation, resuspended in lysis buffer A (0.5 M NaCl, 0.05 M Tris, 5 mM EDTA, pH 8.0) and lysed in a French press. The lysate was centrifuged and the protein was found predominantly in inclusion bodies which were dissolved in buffer B (10 mM DTT and 8 M urea), and refolded in the presence of buffer B containing 0.7 M L-arginine, 0.01 M glutathione, 0.001 M glutathione disulfide, and 0.005 M EDTA as described. […] The specific activity of cathepsin S was assayed using Z-VVR-AMC in fluorimetric and Z-FR-pNA in colorimetric assays[22] and determined to be 10,000 mU/mg protein.
A peptide comprising the N-terminus of PAR2, […], was dissolved in 50 mM Tris, pH 7.0, 0.1 M NaCl, 0.1 mM EDTA, and 0.01% Tween-20 to a concentration of 100 mM. […] The reaction samples were analyzed by the Harvard Microchemistry & Proteomics Analysis Facility (Cambridge, MA). […]

## SLIGRL [positive control, reference compound]
[1]; PAR2-transfected HeLa, after cathepsin S, papain or trypsin, up to 60 minutes, room temperature
  calcium response to the substance as second agent after protease (in words): failed to induce a calcium response at any time up to 60 minutes
[1]
  Concentration-effect curve, calcium-dependent response (in words): curves for SLIGRL and SLIGKVDGTS overlapped
[1]; summary of these studies (discussion)
  concentration at which active/effective: 10 µM
[2]
  IP1 level: ~66 nM
[3]
  PKC Ser660 phosphorylation (in words): weaker effect
[4]; primary keratinocytes and various cell lines, no reference given
  intracellular calcium mobilization (in words): provokes transient intracellular calcium mobilization

## LRGILS [reverse peptide of SLIGRL, negative control, reference compound]
[1]
  Concentration-effect curve, calcium-dependent response (in words): not active

## trypsin [reference compound]
[1]; PAR2-transfected HeLa, KVDGTS 100 µM, cathepsin S 2 µM, papain 2 µM, trypsin 10 nM, second agent after up to 60 minutes, room temperature
  effect as first agent on calcium response to second agent (in words): failed to induce a calcium response at any time up to 60 minutes
[5]
  PAR2 cleavage site preference (in words): cleave PAR2 primarily following arginine residues

## SLIGKVDGTS [decapeptide which encompasses SLIGKV and KVDGTS]
[1]
  Concentration-effect curve, calcium-dependent response (in words): curves for SLIGRL and SLIGKVDGTS overlapped; also recorded: activity comparable to that of SLIGRL
[3]
  PKC Ser660 phosphorylation (in words): weaker effect

## IFN-γ: mediator of inflammation
[6]
  induction of cathepsin S (in words): potent inducer of cathepsin S in keratinocytes

## STGDVK [KVDGTS reverse peptide, reference compound]
[1]
  Concentration-effect curve, calcium-dependent response (in words): not active

## KVDGTSHVTGKGVT
[7]
  cleavage points (in words): next most common sequence results in G at the P1 position

## ficin
[4]
  PAR2 activation (in words): supporting activation

## bromelain
[4]
  PAR2 activation (in words): supporting activation
